Assays:
tHTT = test: Mutant and total HTT multiplex HTRF assay in Q48 HTT human embryonic stem cell line: tHTT; assay type: cell-based; conditions: Q48 HTT hESC, 48 hours
How it was run: (§1)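 Q48 HTT hESCs from HD donors were treated with compound for 48 h at 37 °C after 24 h adherence, then lysed. Lysates were read by multiplex HTRF with N-terminal donor, polyQ (MW1) and post-polyQ (MAB2166) antibodies for 4-6 h at RT. Donor/acceptor ratios give relative mHTT and tHTT; pIC50 reported.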

mHTT = test: Mutant and total HTT multiplex HTRF assay in Q48 HTT human embryonic stem cell line: mHTT; assay type: cell-based; conditions: Q48 HTT hESC, 48 hours
How it was run: as §1

Structure (SMILES)	tHTT pIC50 (tHTT)	Rating (based on mHTT potency) (mHTT)	mHTT pIC50 (mHTT)
COc1ccc(-c2ccc(-c3ccc(N(C)C4CC(C)(C)NC(C)(C)C4)nn3)c(O)c2)cn1 [Compound 67, 5-(6-methoxypyridin-3-yl)-2-(6-(methyl(2,2,6,6-tetramethylpiperidin-4-yl)amino)pyridazin-3-yl)phenol]	6.452	*** (a pIC50 value between 6.5 and 7.0 is indicated by three stars (***))	6.547
CN(c1ccc(-c2cc3ccc(OCCC(C)(C)O)cc3cc2O)nn1)C1CC(C)(C)NC(C)(C)C1 [Compound 68, 7-(3-hydroxy-3-methylbutoxy)-3-(6-(methyl(2,2,6,6-tetramethylpiperidin-4-yl)amino)pyridazin-3-yl)naphthalen-2-ol]	6.488	*** (a pIC50 value between 6.5 and 7.0 is indicated by three stars (***))	6.529
CC1CC(Oc2ccc(-c3ccc(-c4cn[nH]c4)cc3O)nn2)CC(C)N1 (stereo not shown) [Compound 69, 2-(6-((2,6-dimethylpiperidin-4-yl)oxy)pyridazin-3-yl)-5-(1H-pyrazol-4-yl)phenol]	7.089	**** (a pIC50 value between 7.0 and 7.5 is indicated by four stars (****))	7.1525
C[C@@H]1CC(Oc2ccc(-c3ccc(-n4cccn4)cc3O)nn2)C[C@@H](C)N1 (stereo partly drawn) [Compound 70, 2-(6-(((2R,6R)-2,6-dimethylpiperidin-4-yl)oxy)pyridazin-3-yl)-5-(1H-pyrazol-1-yl)phenol]	5.806	* (a pIC50 value between 5 and 6 is indicated by a single star (*))	5.999
Oc1ccc2cc(-c3ccc(C4CCNCC4)nn3)c(O)cc2c1 [Compound 71, 3-(6-(piperidin-4-yl)pyridazin-3-yl)naphthalene-2,7-diol]	5.997	* (a pIC50 value between 5 and 6 is indicated by a single star (*))	5.996
CC1(C)CC(Oc2ccc(-c3ccc(-n4cccn4)cc3O)nn2)CCN1 (stereo not shown) [Compound 72, 2-(6-((2,2-dimethylpiperidin-4-yl)oxy)pyridazin-3-yl)-5-(1H-pyrazol-1-yl)phenol]	6.13	** (a pIC50 value between 6 and 6.5 is indicated by two stars (**))	6.21
Oc1cc(-c2cn[nH]c2)ccc1-c1ccc(N2C[C@H]3CNC[C@H]3C2)nn1 [Compound 74, 2-(6-((3aR,6aS)-hexahydropyrrolo[3,4-c]pyrrol-2(1H)-yl)pyridazin-3-yl)-5-(1H-pyrazol-4-yl)phenol]	6.02	** (a pIC50 value between 6 and 6.5 is indicated by two stars (**))	6.03
COc1cc(-c2cnn(C)c2)ccc1-c1nnc(N2CC3(CCNCC3)C2)s1 [Compound 75, 2-(2-methoxy-4-(1-methyl-1H-pyrazol-4-yl)phenyl)-5-(2,7-diazaspiro[3.5]nonan-2-yl)-1,3,4-thiadiazole]	6.4335	** (a pIC50 value between 6 and 6.5 is indicated by two stars (**))	6.4375
CN(c1nnc(-c2ccc(-c3cn[nH]c3)cc2F)s1)C1CC(C)(C)NC(C)(C)C1 [Compound 76, 5-(2-fluoro-4-(1H-pyrazol-4-yl)phenyl)-N-methyl-N-(2,2,6,6-tetramethylpiperidin-4-yl)-1,3,4-thiadiazol-2-amine]	6.075	** (a pIC50 value between 6 and 6.5 is indicated by two stars (**))	6.0645
CN(c1nnc(-c2cc3cc(C#N)ccc3s2)s1)C1CC(C)(C)NC(C)(C)C1 [Compound 77, 2-(5-(methyl(2,2,6,6-tetramethylpiperidin-4-yl)amino)-1,3,4-thiadiazol-2-yl)benzo[b]thiophene-5-carbonitrile]	6.1615	** (a pIC50 value between 6 and 6.5 is indicated by two stars (**))	6.137
CN(c1nnc(-c2cc3c(cc2O)C(=O)CC3)s1)C1CC(C)(C)NC(C)(C)C1 [Compound 78, 6-hydroxy-5-(5-(methyl(2,2,6,6-tetramethylpiperidin-4-yl)amino)-1,3,4-thiadiazol-2-yl)-2,3-dihydro-1H-inden-1-one]	6.152	** (a pIC50 value between 6 and 6.5 is indicated by two stars (**))	6.264
Cc1cc(-c2ccc(-c3nnc(N(C)C4CC(C)(C)NC(C)(C)C4)s3)c(F)c2)[nH]n1 [Compound 79, 5-(2-fluoro-4-(3-methyl-1H-pyrazol-5-yl)phenyl)-N-methyl-N-(2,2,6,6-tetramethylpiperidin-4-yl)-1,3,4-thiadiazol-2-amine]	6.01	* (a pIC50 value between 5 and 6 is indicated by a single star (*))	5.9315
COc1cc(-c2cn[nH]c2)cc(F)c1-c1nnc(N(C)C2CC(C)(C)NC(C)(C)C2)s1 [Compound 80, 5-(2-fluoro-6-methoxy-4-(1H-pyrazol-4-yl)phenyl)-N-methyl-N-(2,2,6,6-tetramethylpiperidin-4-yl)-1,3,4-thiadiazol-2-amine]	6.071	** (a pIC50 value between 6 and 6.5 is indicated by two stars (**))	6.2465
CN(c1ccc(-c2ccc3nccn3c2)nn1)C1CC(C)(C)NC(C)(C)C1 [Compound 81, 6-(imidazo[1,2-a]pyridin-6-yl)-N-methyl-N-(2,2,6,6-tetramethylpiperidin-4-yl)pyridazin-3-amine]	<5	–	<5
Oc1cc2ccccc2cc1-c1ccc(CC2CCNCC2)nn1 [Compound 82, 3-(6-(piperidin-4-ylmethyl)pyridazin-3-yl)naphthalen-2-ol]	<5	–	<5

— patent US20240216369A1, “THE USE OF A SPLICING MODULATOR FOR A TREATMENT SLOWING PROGRESSION OF HUNTINGTON'S DISEASE” (Novartis AG, priority 2019, published 2024)
